Laboratory results: article PMC10569036

Assay: shake flask on a mixture of 185; loss from the water phase only; LC-Orbitrap peak areas
Conditions: room

Row | Compound | log partition 1-octanol / HPLC water, unbuffered, traces of methanol / DMSO [log10] | log partition butyl acetate / HPLC water, unbuffered, traces of methanol / DMSO [log10] | log partition chloroform / HPLC water, unbuffered, traces of methanol / DMSO [log10] | log partition cyclohexane / HPLC water, unbuffered, traces of methanol / DMSO [log10] | log partition dichloromethane / HPLC water, unbuffered, traces of methanol / DMSO [log10] | log partition n-hexane / HPLC water, unbuffered, traces of methanol / DMSO [log10] | log partition n-octane / HPLC water, unbuffered, traces of methanol / DMSO [log10] | log partition n-undecane / HPLC water, unbuffered, traces of methanol / DMSO [log10] | log partition oleylalcohol / HPLC water, unbuffered, traces of methanol / DMSO [log10] | log partition toluene / HPLC water, unbuffered, traces of methanol / DMSO [log10]
1 | Nc1nc(Cl)nc2c1ncn2[C@H]1C[C@H](O)[C@@H](CO)O1 | 0.3863 | -0.3544 | -0.3218 | -1.47 | -0.9957 | -1.176 | -1.209 | -1.567 | -0.4024 | -0.8939
2 | CCCCc1ccc(O)cc1 | -0.1262 | -0.005316 | -0.1217 | -0.5302 | 0.2438 | -0.849 | -0.6939 | -0.8247 | -0.3004 | -0.3739
3 | CN1COCN(Cc2cnc(Cl)s2)C1=N[N+](=O)[O-] | -0.1952 | 0.2434 | 1.267 | -1.812 | 1.869 | -1.862 | -1.749 | -1.056 | -0.5161 | -0.2331
4 | O=C1OC(=O)C2C3C=CC(C3)C12 (centres unmarked) | -0.9913 | -0.2228 | 0.8465 | -0.9247 | 1.732 | -0.7252 | -1.742 | -1.577 | 0.1202 | 0.5941
5 | Cc1ccc(N)c(S(=O)(=O)O)c1 | 0.1434 | 0.1277 | 1.369 | -0.01168 | 1.153 | 0.1369 | -0.1323 | -0.3053 | -0.05327 | 0.5377
6 | NC(=O)N/N=C/c1ccc([N+](=O)[O-])o1 | 1.712 | 0.5487 | 0.2279 | – | 0.3361 | – | – | – | 0.1785 | -0.2455
7 | CCOC(=O)CC(=O)c1ccccc1 | -0.2282 | -0.1902 | 0.1944 | -1.116 | -0.2025 | -1.048 | -1.147 | -0.8216 | -0.4257 | -0.3454
8 | CC(=O)CCc1ccc(OC(C)=O)cc1 | -0.06689 | 0.7696 | 1.426 | -0.7757 | 1.412 | -1.074 | -1.39 | -1.078 | -0.5711 | -0.2898
9 | CCCCC(CC)COC(=O)c1ccccc1C(=O)O (centres unmarked) | -0.191 | -0.07834 | 0.168 | -0.8356 | 0.3352 | -1.06 | -1.182 | -1.177 | -0.5168 | -0.2474
10 | CCCC1COC(Cn2cncn2)(c2ccc(Cl)cc2Cl)O1 (centres unmarked) | 0.3483 | 0.1767 | 0.2115 | 0.2977 | 0.2897 | 0.2474 | 0.3088 | 0.1588 | 0.003105 | 0.07569
11 | Cc1cc(SCc2sc(-c3ccc(C(F)(F)F)c(F)c3)nc2C)ccc1OCC(=O)O | -0.1342 | 0.8792 | 0.4425 | -1.06 | 0.6672 | -1.28 | -0.8266 | -1.326 | 0.4514 | -0.01784
12 | CCOc1ccc2c(c1)C(C)CC(C)(C)N2 (centres unmarked) | 1.166 | 0.4802 | 0.1266 | 0.1355 | 0.03099 | 0.4617 | 0.03342 | 0.09286 | 0.8298 | -0.1412
